Laboratory results as given in patent US12060347B2 (BRISTOL-MYERS SQUIBB COMPANY, priority 2016, dated 2024).

The compounds below were run against T1, human PAR4 (Homo sapiens, UniProt Q96RI0) (assay: PAR4 FLIPR assay: antagonism of agonist-peptide-induced calcium mobilization in PAR4-expressing HEK293 cells). Conditions: H-Ala-Phe(4-F)-[…]NH2-induced intracellular calcium mobilization, 11-point curves.
T1 construct: expressed in transfected cells; host or cells: HEK293 PAR4 Clone 1.2A (BMS Arctic ID 383940)
T1 sequence (Q96RI0 18-385): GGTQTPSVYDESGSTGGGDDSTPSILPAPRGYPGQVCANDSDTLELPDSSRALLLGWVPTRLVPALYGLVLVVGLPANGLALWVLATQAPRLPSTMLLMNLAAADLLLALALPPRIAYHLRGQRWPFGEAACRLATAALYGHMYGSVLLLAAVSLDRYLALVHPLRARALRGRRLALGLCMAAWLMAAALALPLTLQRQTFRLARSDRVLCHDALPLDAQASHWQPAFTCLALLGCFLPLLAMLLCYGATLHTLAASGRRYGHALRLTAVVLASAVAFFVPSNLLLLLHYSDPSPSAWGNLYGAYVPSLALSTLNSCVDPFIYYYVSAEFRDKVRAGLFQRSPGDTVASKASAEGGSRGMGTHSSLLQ
Format: cell-based

| SMILES | IC50 [nM] |
| --- | --- |
| Cc1cc(-c2nc3cc(F)c(O[C@@H](C)[C@@H](C)OC(=O)Nc4cnc(C)nc4)cc3s2)c2ncc(OC(F)F)nc2c1 [Example 490, (2R,3S)-3-((2-(2-(difluoromethoxy)-7-methylquinoxalin-5-yl)-5-fluorobenzo[d]thiazol-6-yl)oxy)butan-2-yl (2-methylpyrimidin-5-yl)carbamate] | 5.1 |
| COc1cnc2c(-c3nc4cc(F)c(O[C@@H](C)[C@@H](C)OC(=O)Nc5cnc(C)nc5)cc4s3)cc(C)cc2c1 [Example 648, (2R,3S)-3-((5-fluoro-2-(3-methoxy-6-methylquinolin-8-yl)benzo[d]thiazol-6-yl)oxy)butan-2-yl (2-methylpyrimidin-5-yl)carbamate] | 3 |
| COCc1cnc2c(-c3nc4ccc(OCCNS(=O)(=O)c5ccc(F)cc5)cc4s3)cc(C)cc2n1 [Example 107, 4-fluoro N-(2-(2-(2-(methoxymethyl)-7-methylquinoxalin-5-yl)benzo[d]thiazol-6-yloxy)ethyl)benzenesulfonamide] | 2.8 |
| COc1cnc2c(-c3nc4c(Cl)c(F)c(OCCNS(=O)(=O)c5ccccc5)cc4s3)cc(C)cc2n1 [Example 330, N-(2-((4-chloro-5-fluoro-2-(2-methoxy-7-methylquinoxalin-5-yl)benzo[d]thiazol-6-yl)oxy)ethyl)benzenesulfonamide] | 57 |
| COCc1cnc2c(-c3nc4cccnc4s3)cc(C)cc2n1 [Example 148, 2-(2-(methoxymethyl)-7-methylquinoxalin-5-yl)thiazolo[5,4-b]pyridine] | 48 |
| COc1cnc2c(-c3nc4c(Cl)c(F)c(OCc5coc(N)n5)cc4s3)cc(C)cc2n1 [Example 623, 4-(((4-chloro-5-fluoro-2-(2-methoxy-7-methylquinoxalin-5-yl)benzo[d]thiazol-6-yl)oxy)methyl)oxazol-2-amine] | 320 |
| COc1cnc2c(-c3nc4cc(F)c(O[C@@H](C)[C@@H](C)OC(=O)Nc5cnc(OC[C@@H](C)O)nc5)cc4s3)cc(Cl)cc2c1 [Example 540, (2R,3S)-3-((2-(6-chloro-3-methoxyquinolin-8-yl)-5-fluorobenzo[d]thiazol-6-yl)oxy)butan-2-yl (2-((R)-2-hydroxypropoxy)pyrimidin-5-yl)carbamate] | 3 |
| COCCOc1cccc2nc(-c3cc(C)cc4nc(OC(F)F)cnc34)sc12 [Example 75, 2-(2-(difluoromethoxy)-7-methylquinoxalin-5-yl)-7-(2-methoxyethoxy)benzo[d]thiazole] | 14 |
| C=C(C)c1cc(-c2nc3c(C)cc(OCCNS(=O)(=O)c4ccc(F)cc4)cc3s2)c2ncc(OC)nc2c1 [Example 241, 4-fluoro-N-(2-((2-(2-methoxy-7-(prop-1-en-2-yl)quinoxalin-5-yl)-4-methylbenzo[d]thiazol-6-yl)oxy)ethyl)benzenesulfonamide] | 5.4 |
| COc1cnc2c(-c3nc4cc(F)c(OCCOC(=O)Nc5ccncc5)cc4s3)cc(C)cc2n1 [Example 342, 2-((5-fluoro-2-(2-methoxy-7-methylquinoxalin-5-yl)benzo[d]thiazol-6-yl)oxy)ethyl pyridin-4-ylcarbamate] | 11 |
| COc1cnc2c(-c3nc4c(C(O)C(C)(C)C)c(F)c(OC)cc4s3)cc(C)cc2n1 (centres unmarked) [Example 632, 1-(5-fluoro-6-methoxy-2-(2-methoxy-7-methylquinoxalin-5-yl)benzo[d]thiazol-4-yl)-2,2-dimethylpropan-1-ol] | 10 |
| Cc1cc(-c2nc3cc(F)c(O[C@@H](C)[C@@H](C)OC(=O)Nc4cnc(C)nc4)cc3s2)c2ncc(C(=O)NCCO)nc2c1 [Example 616, (2R,3S)-3-((5-fluoro-2-(2-((2-hydroxyethyl)carbamoyl)-7-methylquinoxalin-5-yl)benzo[d]thiazol-6-yl)oxy)butan-2-yl (2-methylpyrimidin-5-yl)carbamate] | 4200 |
| COc1cnc2c(-c3nc4cc(F)c(O[C@@H](C)[C@@H](C)OC(=O)Nc5ccnc(OCCC(C)(C)O)c5)nc4s3)cc(Cl)cc2c1 [Example 778, (2R,3S)-3-((2-(6-chloro-3-methoxyquinolin-8-yl)-6-fluorothiazolo[5,4-b]pyridin-5-yl)oxy) butan-2-yl (2-(3-hydroxy-3-methylbutoxy)pyridin-4-yl)carbamate] | 3.4 |
| Cc1cc(-c2nc3c(C)cc(OCCNS(=O)(=O)c4ccc(F)cc4)cc3s2)c2ncc(C3CC3)nc2c1 [Example 91, N-(2-(2-(2-cyclopropyl-7-methylquinoxalin-5-yl)-4-methylbenzo[d]thiazol-6-yloxy)ethyl)-4-fluorobenzenesulfonamide] | 62 |
| COc1cnc2c(-c3nc4cc(F)c(O[C@@H](C)[C@@H](C)OC(=O)Nc5ccnc(OCCO)c5)nc4s3)cc(Cl)cc2c1 [Example 780, (2R,3S)-3-((2-(6-chloro-3-methoxyquinolin-8-yl)-6-fluorothiazolo[5,4-b]pyridin-5-yl)oxy) butan-2-yl (2-(2-hydroxyethoxy)pyridin-4-yl)carbamate] | 5 |
| COCc1cnc2c(-c3nc4c(F)c(F)c(OCCNS(=O)(=O)c5cccc(F)c5)cc4s3)cc(C)cc2n1 [Example 317, N-(2-((4,5-difluoro-2-(2-(methoxymethyl)-7-methylquinoxalin-5-yl)benzo[d]thiazol-6-yl)oxy)ethyl)-3-fluorobenzenesulfonamide] | 4.5 |
| COCc1cnc2c(-c3nc4c(OC)cccc4s3)cc(C)cc2n1 [Example 259, 4-methoxy-2-(2-(methoxymethyl)-7-methylquinoxalin-5-yl)benzo[d]thiazole] | 14 |
| COc1cnc2c(-c3cc4cc(OCCNS(=O)(=O)c5ccccc5)cc(Cl)c4o3)cc(C)cc2n1 [Example 39, N-(2-((7-chloro-2-(2-methoxy-7-methylquinoxalin-5-yl)benzofuran-5-yl)oxy)ethyl)benzenesulfonamide] | 10 |

Compounds with a lower IC50, results first:

| IC50 [nM] | SMILES |
| --- | --- |
| 1.3 | COc1cnc2c(-c3nc4cc(F)c(OC[C@@H](C)OC(=O)Nc5cnc(O[C@@H](C)CO)nc5)nc4s3)cc(C)cc2n1 [Example 693, (R)-1-((6-fluoro-2-(2-methoxy-7-methylquinoxalin-5-yl)thiazolo[5,4-b]pyridin-5-yl)oxy) propan-2-yl (2-(((S)-1-hydroxypropan-2-yl)oxy)pyrimidin-5-yl)carbamate] |
| 0.2 | COc1cnc2c(-c3nc4cc(F)c(O[C@@H](C)[C@@H](C)OC(=O)Nc5cnc(N(C)S(C)(=O)=O)nc5)cc4s3)cc(C)cc2n1 [Example 607, (2R,3S)-3-((5-fluoro-2-(2-methoxy-7-methylquinoxalin-5-yl)benzo[d]thiazol-6-yl)oxy)butan-2-yl (2-(N-methylmethylsulfonamido)pyrimidin-5-yl)carbamate] |
| 0.9 | COc1cc(C(O)C2(C(F)(F)F)CCC2)c2nc(-c3cc(C)cc4nc(OC)cnc34)sc2c1 (single isomer, unassigned) [Example 664] |
| 1.4 | COCc1cnc2c(-c3nc4c(C(O)C(C)(C)C)cc(OC)cc4s3)cc(C)cc2n1 (centres unmarked) [Example 628, 1-(6-methoxy-2-(2-(methoxymethyl)-7-methylquinoxalin-5-yl)benzo[d]thiazol-4-yl)-2,2-dimethylpropan-1-ol] |
| 1.3 | COc1cnc2c(-c3nc4c(C)cc(OCCOC(=O)Nc5ccc(C#N)nc5)nc4s3)cc(C)cc2n1 [Example 197, 2-((2-(2-methoxy-7-methylquinoxalin-5-yl)-7-methylthiazolo[5,4-b]pyridin-5-yl)oxy)ethyl (6-cyanopyridin-3-yl)carbamate] |
| 1.3 | COc1cnc2c(-c3nc4c(Cl)c(F)c(OC[C@@H](C)OC(=O)Nc5cccnc5)cc4s3)cc(C)cc2n1 [Example 372, (R)-1-((4-chloro-5-fluoro-2-(2-methoxy-7-methylquinoxalin-5-yl)benzo[d]thiazol-6-yl)oxy)propan-2-yl pyridin-3-ylcarbamate] |
| 2 | COc1ccc(C)c2nc(-c3cc(C)cc4nc(OC(F)F)cnc34)sc12 [Example 12, 2-(2-(difluoromethoxy)-7-methylquinoxalin-5-yl)-7-methoxy-4-methylbenzo[d]thiazole] |
| 1.7 | CCOc1cnc2c(-c3nc4cc(F)c(O[C@@H](C)[C@@H](C)OC(=O)Nc5cnc(COP(=O)(O)O)nc5)cc4s3)cc(C)cc2n1 [Example 532, (2R,3S)-3-((2-(2-ethoxy-7-methylquinoxalin-5-yl)-5-fluorobenzo[d]thiazol-6-yl)oxy)butan-2-yl (2-((phosphonooxy)methyl)pyrimidin-5-yl)carbamate] |
| 0.7 | COc1cnc2c(-c3nc4cc(F)c(O[C@@H](C)[C@@H](C)OC(=O)Nc5cnc(C(=O)NCC6(O)CCC6)nc5)cc4s3)cc(C)cc2n1 [Example 463, (2R,3S)-3-((5-fluoro-2-(2-methoxy-7-methylquinoxalin-5-yl)benzo[d]thiazol-6-yl)oxy)butan-2-yl (2-(((1-hydroxycyclobutyl)methyl)carbamoyl)pyrimidin-5-yl)carbamate] |
| 1 | COCc1cnc2c(-c3nc4c(Cl)c(F)c(OCCO)cc4s3)cc(C)cc2n1 [Example 293, 2-((4-chloro-5-fluoro-2-(2-(methoxymethyl)-7-methylquinoxalin-5-yl)benzo[d]thiazol-6-yl)oxy)ethanol] |
| 0.4 | CCCOc1cnc2c(-c3nc4cc(F)c(O[C@@H](C)[C@@H](C)OC(=O)Nc5cnc(C)nc5)cc4s3)cc(C)cc2n1 [Example 491, (2R,3S)-3-((5-fluoro-2-(7-methyl-2-propoxyquinoxalin-5-yl)benzo[d]thiazol-6-yl)oxy)butan-2-yl (2-methylpyrimidin-5-yl)carbamate] |
